Source: ChEMBL document CHEMBL5506044, “Ligandability Assessment of IL-1β by Integrated Hit Identification Approaches” (J Med Chem, 2024)
Bridge positions count the residues as written; N and C are the ends. Peptide text beside a SMILES is read from it.

Assays:
Interleukin-1 beta [1] = target: T1, Interleukin-1 beta (Homo sapiens, UniProt P01584)
Description: Antagonist activity at human IL-1 beta assessed as inhibition of interaction of IL-1 beta/IL-1R1 expressed in NHDF cells by measuring reduction in IL-6 production preincubated with IL-1 beta for 1 hr followed by incubation with cells and measured after 6 hrs by ELISA

Interleukin-1 beta [2] = target: T1, Interleukin-1 beta; remark: listed apart in the source
Description: Antagonist activity at human IL-1 beta assessed as inhibition of interaction of IL-1beta/IL-1R1 expressed in HEK293-Blue cells by measuring reduction in SEAP activity preincubated with IL-1 beta for 1 hr followed by incubation with cells and measured after overnight by reporter gene assay

Interleukin-1 beta [3] = target: T1, Interleukin-1 beta; remark: listed apart in the source
Interleukin-1 beta [4] = target: T1, Interleukin-1 beta; remark: listed apart in the source
Description: Antagonist activity at human recombinant His-tagged wild type IL-1 beta assessed as inhibition of IL-1 beta/Alexa 647 labeled human IL-1R1 (1 to 332) interaction preincubated with IL-1 beta for 1 hr followed by IL-1R1 addition and measured after 1 hr by TR-FRET assay

Interleukin-1 alpha = target: T2, Interleukin-1 alpha (Homo sapiens, UniProt P01583)
T2 sequence (P01583 whole entry): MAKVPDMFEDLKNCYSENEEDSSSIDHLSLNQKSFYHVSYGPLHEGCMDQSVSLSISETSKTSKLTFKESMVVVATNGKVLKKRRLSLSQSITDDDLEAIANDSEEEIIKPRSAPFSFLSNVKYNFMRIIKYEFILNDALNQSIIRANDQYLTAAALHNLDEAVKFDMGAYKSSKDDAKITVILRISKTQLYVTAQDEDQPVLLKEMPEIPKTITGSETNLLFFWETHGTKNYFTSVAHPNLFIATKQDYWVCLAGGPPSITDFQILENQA
Description: Antagonist activity at human recombinant His-tagged wild type IL-1 alpha assessed as inhibition of IL-1 alpha/Alexa 647 labeled human IL-1R1 (1 to 332) interaction preincubated with IL-1 alpha for 1 hr followed by IL-1R1 addition and measured after 1 hr by TR-FRET assay

T1 sequence (P01584 117-269 limits assumed): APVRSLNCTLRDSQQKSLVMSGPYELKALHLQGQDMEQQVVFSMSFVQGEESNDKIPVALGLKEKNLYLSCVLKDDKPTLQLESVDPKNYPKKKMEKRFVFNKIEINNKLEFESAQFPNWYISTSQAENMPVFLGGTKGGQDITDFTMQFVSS

SMILES	Ki (Interleukin-1 beta [3]) [µM]	IC50 (Interleukin-1 beta [4]) [µM]	IC50 (Interleukin-1 alpha) [µM]	further results
Cc1ccc2c(c1)NC(=O)[C@@]2(c1cn[nH]c1)c1cc(-c2ccc(C(=O)O)cc2C(=O)O)ccc1O	< 10	–	–	IC50 (Interleukin-1 beta [1]): 7.9 µM; IC50 (Interleukin-1 beta [2]): 5.3 µM
CC(C)c1cc(-c2cc(C(=O)O)cn3cc(C(=O)N4CCN(S(=O)(=O)c5ccccc5)CC[C@H]4C(=O)NCCN4CCOCC4)nc23)ccc1C=O	–	8.3	99	–
CC(C)c1cccc(-c2cc(C(=O)O)cn3cc(C(=O)N4CCN(S(=O)(=O)c5ccccc5)CCC4C(=O)NCCN4CCOCC4)nc23)c1 (configuration not stated)	–	> 200	–	–
O=Cc1ccc(-c2cc(C(=O)O)cn3cc(C(=O)N4CCN(S(=O)(=O)c5ccccc5)CC[C@H]4C(=O)NCCN4CCOCC4)nc23)cc1C(F)(F)F	–	1.2	> 200	–
CC(C)c1cc(-c2cc(C(=O)O)cn3cc(C(=O)N4CCCN(S(=O)(=O)c5ccccc5)CC4)nc23)ccc1C=O	–	> 200	> 200	–
CC(C)c1cc(-c2cc(C(=O)O)cn3cc(C(=O)N4CCN(S(=O)(=O)c5ccccc5)CC[C@@H]4C(=O)NCCN4CCOCC4)nc23)ccc1C=O	–	78.4	> 200	–
Cc1cc(O)c(C(c2cc(C3CC(C(=O)O)C3)ccc2O)c2c[nH]nc2C(=O)O)cc1C (racemic)	43	–	–	–
OC(c1ccc(OC(F)F)cc1)(c1cccc(Br)c1)c1cc[nH]n1 (racemic)	> 1000	–	–	–
CC(C)c1cc(-c2cc(C(=O)O)cn3cc(C(=O)N4CCN(S(=O)(=O)c5ccccc5)CCC4C(=O)NCCN4CCOCC4)nc23)ccc1C=O (racemic)	–	11	–	–
NCCCC[C@H](NC(=O)CNC(=O)[C@@H]1CSCC(=O)N[C@@H](Cc2ccccc2)C(=O)N[C@@H](Cc2c[nH]c3ccccc23)C(=O)N[C@@H](CC(=O)O)C(=O)N[C@@H](CO)C(=O)N[C@@H](Cc2c[nH]c3ccccc23)C(=O)NCC(=O)N[C@@H](Cc2ccc(O)cc2)C(=O)N[C@@H](Cc2c[nH]c3ccccc23)C(=O)N[C@@H](Cc2ccc(O)cc2)C(=O)NCC(=O)N2CCC[C@H]2C(=O)N[C@@H](Cc2c[nH]c3ccccc23)C(=O)N[C@@H](CC(=O)O)C(=O)N1)C(N)=O ({CH2CO}-FWDSWGYWYGPWDCGK-NH2; thioether N-14)	–	14	> 200	–
